Where two headings read alike, the source gives them in different places.
What was measured:
[1] = molecular target: T1, Factor XIa (Homo sapiens, UniProt P03951); experiment: Enzyme inhibition assay, chromogenic substrate S-2366
[2] = molecular target: Factor VIIa (Homo sapiens, UniProt P08709); experiment: Enzyme inhibition assay, chromogenic substrate S-2238
[3] = molecular target: Trypsin; experiment: Enzyme inhibition assay, chromogenic substrate S-2765; type: biochemical; details: 10 min preincubation, 3 nM enzyme
Description: Final reaction volumes were 100 μL.
For FXIIa, the buffer also contained 50 mM imidazole. […] The buffer for FIXa (50 nM final concentration) was 50 mM Tris, 100 mM NaCl, 5 mM CaCl2, and 30% ethylene glycol.

[4] = molecular target: T2, Factor XIIa (Homo sapiens, UniProt P00748); experiment: Enzyme inhibition assay, chromogenic substrate S-2302
T2 sequence (P00748 373-615 limits assumed): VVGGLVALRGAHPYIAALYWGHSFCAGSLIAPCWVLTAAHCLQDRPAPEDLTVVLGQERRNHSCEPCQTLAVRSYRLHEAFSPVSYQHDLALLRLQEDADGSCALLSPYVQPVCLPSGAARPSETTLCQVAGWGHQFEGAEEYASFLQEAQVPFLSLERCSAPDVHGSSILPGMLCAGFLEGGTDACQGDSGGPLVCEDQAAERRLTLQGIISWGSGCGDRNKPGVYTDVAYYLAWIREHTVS
T2 sequence (P00748 20-372 partner limits assumed): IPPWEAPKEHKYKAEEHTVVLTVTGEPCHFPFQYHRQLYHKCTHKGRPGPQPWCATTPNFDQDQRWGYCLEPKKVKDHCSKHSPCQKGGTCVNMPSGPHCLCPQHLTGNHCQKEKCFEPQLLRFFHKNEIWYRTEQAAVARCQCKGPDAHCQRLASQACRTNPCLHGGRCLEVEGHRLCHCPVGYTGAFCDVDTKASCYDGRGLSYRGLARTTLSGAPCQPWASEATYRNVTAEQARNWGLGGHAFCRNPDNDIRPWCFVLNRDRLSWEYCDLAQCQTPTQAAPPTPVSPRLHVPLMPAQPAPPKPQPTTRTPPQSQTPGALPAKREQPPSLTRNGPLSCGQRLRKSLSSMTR

[5] = system: thrombin generation in human platelet-poor plasma; experiment: Thrombin generation assay (TGA); type: biochemical; details: 70% human platelet-poor plasma, 37°C
Description: The assay was performed with human platelet-poor plasma (70% final concentration) in buffer containing 20 mM HEPES (pH 7.4), 150 mM NaCl, and compound in DMSO (4% final concentration). The assay also contained phospholipids (approx. 3 μM) and Dade Innovin (1/5000 final dilution of stock). The reaction was triggered by the addition of a solution containing substrate (Z-GGR-AMC, 0.5 mM final concentration) and CaCl2 (15 mM final concentration). The reaction was then monitored kinetically by fluorescence (excitation 380 nm, emission 460 nm) at 37°C for 90 min.

[6] = system: clotting of human platelet-poor plasma; experiment: Activated partial thromboplastin time (aPTT) clotting assay; type: biochemical; details: 37°C
Description: (§1) Both PT and aPTT assays were performed as recommended by the vendor (Diagnostica Stago). Briefly, citrated normal pooled human platelet-poor plasma was mixed with test compound (2% DMSO) at 37°C. Subsequently, either the aPTT assay reagent or PT assay reagent was added and mixed thoroughly. CaCl2 was then added to trigger the clotting process. The time for clot formation was measured in seconds and the test compound concentration to double the clotting time (CT2x) was determined.

[7] = molecular target: T3, Factor Xa (Homo sapiens, UniProt P00742); experiment: Enzyme inhibition assay, chromogenic substrate S-2765
T3 sequence (P00742 235-488 limits assumed): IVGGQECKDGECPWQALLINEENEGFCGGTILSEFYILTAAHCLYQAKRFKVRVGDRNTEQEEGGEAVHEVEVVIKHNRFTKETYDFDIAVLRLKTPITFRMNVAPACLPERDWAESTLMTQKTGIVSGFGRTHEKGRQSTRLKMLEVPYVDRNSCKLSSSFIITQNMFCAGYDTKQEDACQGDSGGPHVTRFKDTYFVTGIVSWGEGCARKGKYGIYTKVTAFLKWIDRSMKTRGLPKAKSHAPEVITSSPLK
T3 sequence (P00742 41-179 partner limits assumed): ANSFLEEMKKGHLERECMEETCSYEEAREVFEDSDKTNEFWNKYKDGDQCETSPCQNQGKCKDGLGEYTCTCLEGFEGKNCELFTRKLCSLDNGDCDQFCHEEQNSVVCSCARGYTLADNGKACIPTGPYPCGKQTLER

[8] = molecular target: T4, Plasmin (Homo sapiens, UniProt P00747); experiment: Enzyme inhibition assay, chromogenic substrate S-2251
T4 sequence (P00747 581-810 limits assumed, species assumed): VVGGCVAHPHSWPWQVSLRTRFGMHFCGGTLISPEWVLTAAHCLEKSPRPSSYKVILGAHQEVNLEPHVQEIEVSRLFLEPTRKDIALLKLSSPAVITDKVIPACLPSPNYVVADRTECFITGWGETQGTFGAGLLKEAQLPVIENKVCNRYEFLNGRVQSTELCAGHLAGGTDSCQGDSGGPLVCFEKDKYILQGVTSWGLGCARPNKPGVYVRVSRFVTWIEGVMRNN
T4 sequence (P00747 97-580 partner limits assumed, species assumed): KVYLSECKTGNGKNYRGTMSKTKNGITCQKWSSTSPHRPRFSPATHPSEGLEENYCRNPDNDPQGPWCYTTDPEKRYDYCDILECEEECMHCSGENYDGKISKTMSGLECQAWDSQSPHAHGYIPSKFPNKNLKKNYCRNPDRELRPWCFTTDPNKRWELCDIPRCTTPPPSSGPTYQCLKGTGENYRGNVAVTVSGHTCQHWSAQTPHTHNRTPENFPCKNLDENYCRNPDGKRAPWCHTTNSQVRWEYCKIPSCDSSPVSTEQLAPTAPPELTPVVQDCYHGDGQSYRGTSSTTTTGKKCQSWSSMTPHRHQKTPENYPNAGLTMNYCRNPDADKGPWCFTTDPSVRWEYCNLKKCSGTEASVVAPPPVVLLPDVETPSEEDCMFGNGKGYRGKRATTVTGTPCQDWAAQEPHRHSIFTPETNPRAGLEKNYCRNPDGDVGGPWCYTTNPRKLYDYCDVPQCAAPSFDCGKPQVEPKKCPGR

[9] = system: clotting of human platelet-poor plasma; details: 37°C
Description: as §1

[10] = molecular target: Factor IXa (Homo sapiens, UniProt P00740); experiment: Enzyme inhibition assay, substrate Spectrozyme
Factor IXa, sequence (P00740 227-461 limits assumed): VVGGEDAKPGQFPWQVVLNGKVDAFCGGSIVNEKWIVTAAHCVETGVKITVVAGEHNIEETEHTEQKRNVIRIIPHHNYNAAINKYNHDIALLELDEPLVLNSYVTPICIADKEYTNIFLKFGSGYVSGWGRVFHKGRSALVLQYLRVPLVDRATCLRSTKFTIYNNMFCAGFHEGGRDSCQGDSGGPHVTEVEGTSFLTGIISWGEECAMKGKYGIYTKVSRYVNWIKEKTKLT
Factor IXa, sequence (P00740 47-191 partner limits assumed): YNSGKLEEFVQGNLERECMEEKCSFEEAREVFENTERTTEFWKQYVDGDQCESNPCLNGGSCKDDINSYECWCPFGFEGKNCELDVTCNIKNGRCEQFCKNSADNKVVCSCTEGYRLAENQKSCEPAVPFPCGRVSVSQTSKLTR

[11] = molecular target: aPC (Homo sapiens, UniProt P04070); experiment: Enzyme inhibition assay, chromogenic substrate S-2366
aPC, sequence (P04070 212-450 limits assumed): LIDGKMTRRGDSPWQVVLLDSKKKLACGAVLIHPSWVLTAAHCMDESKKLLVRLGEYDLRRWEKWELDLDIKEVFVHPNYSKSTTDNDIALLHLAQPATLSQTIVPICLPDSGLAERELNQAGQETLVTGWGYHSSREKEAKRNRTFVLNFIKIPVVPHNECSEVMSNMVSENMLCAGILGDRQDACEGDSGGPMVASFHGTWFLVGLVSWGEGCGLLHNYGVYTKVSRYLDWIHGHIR
aPC, sequence (P04070 43-197 partner limits assumed): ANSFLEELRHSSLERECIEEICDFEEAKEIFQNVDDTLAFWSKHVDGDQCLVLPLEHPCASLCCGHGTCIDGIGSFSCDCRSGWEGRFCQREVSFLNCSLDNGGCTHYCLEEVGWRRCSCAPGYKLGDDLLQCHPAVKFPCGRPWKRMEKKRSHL

[12] = Liver microsome (LM) stability assay; type: in vitro ADME; details: liver microsomes, NADPH, n = 2, read-out: LM stability t½
Description: Compound at 1 μM (0.5% final DMSO concentration) was incubated with a 0.5 mg/mL CD-1 mouse (Sigma), SD rat (Life Technologies), or human liver microsome (Life Technologies) in the presence of 1 mM NADPH at 37°C for up to one hour. Aliquots were taken out at different time points and quenched in acetonitrile containing diclofenac (internal standard). […] Verapamil was used as a positive control, and warfarin was used as a negative control.

[13] = molecular target: T3, Factor Xa; experiment: Progress curve kinetics experiments; type: biochemical; parameters: purchased Haemtech Biopharma Services
Description: (§3) The data for the initial time points, up to at least 65% reaction progress, were analyzed as described in Wakselman et al. [20].

[14] = Control sample in buffer in the absence of thrombin; details: 50 mM Tris pH 7.4, 100 mM NaCl, 0.2% PEG 8000, up to overnight
Description: The reaction was then quenched with acetonitrile and centrifuged at 4°C, 1000x RCF, for 10 min to pellet the protein. […] Quantification of the compounds was performed by LC-MS using a Shimadzu Nexera X2 UPLC system coupled with a Sciex QTrap 5500. Chromatography was performed on a LunaOmega Polar C18 analytical column (1.6 μm, 50 x 2.1 mm). The mobile phases were 0.025% formic acid in water and 0.025% formic acid in acetonitrile.

[15] = molecular target: T4, Plasmin; experiment: Progress curve kinetics experiments; type: biochemical; parameters: purchased Haemtech Biopharma Services
Description: The data for the initial time points, up to at least 65% reaction progress, were analyzed as described in Wakselman et al..
Thus, when fitting to Eq (3), the extracted values kobs for each well were plotted against the modified inhibitor concentration [I]′0=(1−α)[I]0. (6)
For the experiments presented in this paper, n = 2 and the mean and standard deviation are reported for each parameter.

[16] = Plasma stability assay; type: in vitro ADME; details: 37°C, n = 2, read-out: Plasma stability t½
Description: The compound at 20 μM (2% final DMSO concentration) was incubated with CD-1 mouse (Innovative Research), SD rat (Innovative research), or human plasma (George King BioMed) at 37°C for up to three hours. Aliquots were taken out at different time points and quenched in acetonitrile containing diclofenac (internal standard). The samples were then centrifuged and the supernatant was analyzed by UHPLC using a Kinetex 2.6 μm C18 (Phenomenex) column and a Shimadzu Nexera UHPLC. Verapamil was used as a positive control.

[17] = Pharmacokinetics (PK) in CD-1 mice; details: male, CD-1, mouse, plasma, iv, 0.5 mg/kg
Description: The test compound was injected intravenously (i.v.) into CD-1 mice at 0.5 mg/kg in formulation containing 5% DMA (dimethyl acetamide) 15% Solutol HS15 and 80% water. Animals were euthanized at predefined time points by CO2 inhalation and blood was collected in K2-EDTA vacutainers by cardiac puncture. The vials were then centrifuged to collect plasma. […] LC-MS was performed using a Luna Omega 1.6 μm Polar C18 (Phenomenex) column, a Shimadzu Nexera UHPLC, and a Sciex QTrap 5500 mass spectrometer. The PK parameters were calculated by non-compartmental analysis using Phoenix WinNonlin (Certara).

[18] = molecular target: T1, Factor XIa; experiment: Progress curve kinetics experiments; type: biochemical
Description: as §3

[19] = molecular target: T5, WT human α-thrombin (Homo sapiens, UniProt P00734); experiment: Binding of a dansyl probe to thrombin (tryptophan fluorescence); details: 1 μM compound, 80 nM thrombin, excitation 280 nm, emission 340 nm
T5 construct: made in house; host or cells: E. coli
Description: (§2) Compound 2 at 1 μM was incubated with WT human α-thrombin (80 nM) or the active site mutant protein S195A at room temperature for 10 min. Then, fluorescence measurements (excitation 280 nm, emission 340 nm) were recorded in kinetic mode.

[20] = molecular target: T6, thrombin mutant S195A (Homo sapiens, UniProt P00734, S568A); experiment: as above; details: 1 μM compound, excitation 280 nm, emission 340 nm
T6 construct: made in house; host or cells: E. coli
Description: as §2

[21] = molecular target: thrombin (Homo sapiens, UniProt P00734); experiment: Enzyme inhibition assay, chromogenic substrate S-2238
[22] = read-out: Cmax EC50 (peak height)
[23] = read-out: ETP EC50 (endogenous thrombin potential)

Factor VIIa, sequence (P08709 213-466 limits assumed): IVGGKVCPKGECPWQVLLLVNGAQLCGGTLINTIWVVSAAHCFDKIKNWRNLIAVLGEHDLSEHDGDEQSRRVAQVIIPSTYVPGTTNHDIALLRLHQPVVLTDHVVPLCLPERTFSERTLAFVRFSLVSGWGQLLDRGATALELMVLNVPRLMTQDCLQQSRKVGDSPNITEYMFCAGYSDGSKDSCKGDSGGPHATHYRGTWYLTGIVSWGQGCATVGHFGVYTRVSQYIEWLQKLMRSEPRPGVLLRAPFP
Factor VIIa, sequence (P08709 61-212 partner limits assumed): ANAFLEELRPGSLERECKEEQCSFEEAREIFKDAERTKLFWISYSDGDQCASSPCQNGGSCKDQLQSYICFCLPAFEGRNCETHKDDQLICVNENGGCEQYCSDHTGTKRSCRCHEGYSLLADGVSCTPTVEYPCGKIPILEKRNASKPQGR
Factor VIIa, sequence (P13726 33-295 partner): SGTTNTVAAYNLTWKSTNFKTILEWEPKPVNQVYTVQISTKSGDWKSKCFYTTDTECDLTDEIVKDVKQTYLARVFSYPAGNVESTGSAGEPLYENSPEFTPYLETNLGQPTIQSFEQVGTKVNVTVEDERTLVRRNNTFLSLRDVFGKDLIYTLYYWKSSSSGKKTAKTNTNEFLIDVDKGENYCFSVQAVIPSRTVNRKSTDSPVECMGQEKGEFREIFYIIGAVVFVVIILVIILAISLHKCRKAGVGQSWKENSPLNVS
T1 sequence (P03951 388-625 limits assumed): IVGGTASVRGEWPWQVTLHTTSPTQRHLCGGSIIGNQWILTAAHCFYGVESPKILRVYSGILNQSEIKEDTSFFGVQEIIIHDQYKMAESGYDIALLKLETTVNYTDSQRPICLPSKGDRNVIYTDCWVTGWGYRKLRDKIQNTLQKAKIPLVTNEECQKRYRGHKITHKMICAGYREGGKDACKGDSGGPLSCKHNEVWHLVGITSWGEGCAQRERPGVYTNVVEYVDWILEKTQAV
T1 sequence (P03951 19-387 partner limits assumed): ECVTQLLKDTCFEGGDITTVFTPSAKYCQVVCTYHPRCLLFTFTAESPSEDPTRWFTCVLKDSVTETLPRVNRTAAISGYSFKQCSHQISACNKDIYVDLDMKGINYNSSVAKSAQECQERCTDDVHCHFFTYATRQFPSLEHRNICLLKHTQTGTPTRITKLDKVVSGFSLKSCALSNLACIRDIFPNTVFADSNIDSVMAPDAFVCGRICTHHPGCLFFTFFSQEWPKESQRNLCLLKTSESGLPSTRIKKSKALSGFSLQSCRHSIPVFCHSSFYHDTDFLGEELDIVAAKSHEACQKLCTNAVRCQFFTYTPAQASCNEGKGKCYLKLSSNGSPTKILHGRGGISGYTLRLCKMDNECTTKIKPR

SMILES | IC50 [1] [µM] | IC50 [2] [µM] | IC50 [4] [µM] | EC50 [5, 22] [µM] | EC50 [5, 23] [µM] | CT2x in aPTT assay (concentration to double the clotting time) [6] [µM] | IC50 [7] [µM] | IC50 [8] [µM] | IC50 [10] [µM] | IC50 [11] [µM] | IC50 [21] [µM] | also measured
CC1CNc2c(cccc2S(=O)(=O)N[C@@H](CCCNC(=N)N)C(=O)N2CC[C@@H](C)C[C@@H]2C(=O)O)C1 (some centres unmarked) [Argatroban] | > 50 | > 50 | > 50 | 0.27 ± 0.05 | 0.34 ± 0.11 | 0.27 ± 0.15 | > 50 | > 50 | > 50 | > 50 | – | IC50 [3]: > 50 µM; CT2x in PT assay (concentration to double the clotting time) [9]: 0.60 ± 0.14 µM
COc1ccccc1C(=O)n1nc(C2CCNCC2)c(F)c1NCc1ccc(Cl)s1 [Compound 1] | 2.8 ± 0.2 | 13.8 ± 2.8 | > 50 | – | – | > 100 | 8.3 ± 3.4 | 0.7 ± 0.15 | > 50 | > 50 | – | half-life at 1 μM ([12]; CD-1 mouse liver microsome 0.5 mg/mL): 20 ± 2 min; half-life at 1 μM ([12]; Human liver microsome 0.5 mg/mL): 110 min; half-life at 1 μM ([12]; SD rat liver microsome 0.5 mg/mL): 8 ± 1.6 min; Ki [13]: 94 ± 57 µM; stability in buffer in the absence of thrombin [14]: stable over the entire course of the experiment; Ki [15]: 0.8 ± 0.6 µM; half-life at 20 μM ([16]; CD-1 mouse plasma): 14 ± 1 min; half-life at 20 μM ([16]; Human plasma): 89 ± 9 min; half-life at 20 μM ([16]; SD rat plasma): 25 min; AUC [17]: 88 ng·h/mL; C0 [17]: 260 ng/mL; Vd [17]: 30 L/kg; clearance [17]: 183 mL/min/kg; half-life [17]: 114 min; Ki [18]: 5.5 ± 4 µM
CN(C)c1cccc2c(S(=O)(=O)Nc3ccc(C(=O)n4nc(C5CCNCC5)c(F)c4NCc4ccc(Cl)s4)cc3)cccc12 [Compound 2] | – | – | – | – | – | – | – | – | – | – | 0.08 | change of tryptophan fluorescence on incubation with thrombin WT [19]: time-dependent change in the fluorescence intensity at 340 nm; change of tryptophan fluorescence on addition to thrombin S195A [20]: failed to produce any change in fluorescence
Fc1c(C2CCNCC2)n[nH]c1NCc1ccc(Cl)s1 [Compound 3] | – | – | – | > 100 | > 100 | – | – | – | – | – | > 100 | Tmax EC2x (concentration necessary to shift the time to peak 2-fold) [5]: > 100 µM
[H]/N=C(/N)c1ccc(NCc2nc3cc(C(=O)N(CCC(=O)O)c4ccccn4)ccc3n2C)cc1 [Dabigatran] | 4.2 ± 1.5 | 40.7 ± 13.3 | > 50 | 0.24 ± 0.08 | 0.21 ± 0.04 | – | – | 8.4 ± 2.6 | > 50 | 41.3 ± 7.6 | – | –

Reference: paper PMC6072017, “Reversible covalent direct thrombin inhibitors” (PLoS ONE, 2018)
